Reference: patent publication US9815794B2, “Inhibition of bacterial biofilms and microbial growth with imidazole derivatives” (North Carolina State University, priority 2011, dated 2017)
Values after ≈ are worked out from the molar mass of the structure shown. Like-named read-outs stand apart in the source and are kept apart here.

Legend:
[1] = test system: Rhodospirillum salexigens; experiment: Marine bacteria microdilution MIC; details: Rhodothalassium salexigens, R. salexigens
MDRAB [2] = experiment: Biofilm formation inhibition, crystal violet reporter assay; assay type: cell-based
Method: (§1) The ability of each member of the pilot library to inhibit either E. coli or MDRAB biofilm formation at 100 μM was assessed using a crystal violet reporter assay (O'Toole et al., Mol. Microbiol., 1998, 30: 295-304).

Vibrio cholerae = experiment: Marine bacteria microdilution MIC; assay type: cell-based; details: Vibrio cholerae, V. cholerae
MSSA = experiment: Broth microdilution MIC; assay type: cell-based, S. aureus; details: Staphylococcus aureus
Method: (§2) Once it was determined that this specific 4,5-disubstitution pattern imparted microbicidal activity onto the 2-AI framework, this activity was quantified by measuring the MIC of each derivative against a variety of representative pathogenic bacterial strains using the microdilution protocol (CSLI, Performance Standards for Antimicrobial Suceptibility Testing; Nineteenth Informational Supplement, Clinical and Laboratory Standards Institute, Wayne, Pa., 2009). E. coli, MDRAB, P. aeruginosa, MRSA, MSSA, S. epidermidis and VRE were used for initial evaluation. From this screen, compound 15 was determined to be the lead compound and had MIC values (μg/mL) of 2, 2, 1, 0.5, 0.25, and 1 against E. coli, MDRAB, MRSA, VRE, S. Epidermidis and MSSA.
(§3) S. aureus (ATCC #29213), S. epidermidis (ATCC #29886), MRSA (ATCC # BAA-44), MDRAB (ATCC # BAA-1605), vancomycin resistant Enterococcus faecium (VRE) (ATCC #51559) and E. coli (ATCC #35695) were obtained from the ATCC. Mechanically difibrinated sheep blood (DSB100) was obtained from Hemostat Labs. Mueller-Hinton medium was purchased from Fluka (#70192).
(§4) Broth Microdilution Method for MIC Determination.

Vibrio vulnificus = experiment: Marine bacteria microdilution MIC; details: Vibrio vulnificus, V. vulnificus
E. coli [3] = experiment: Biofilm formation inhibition, crystal violet reporter assay; assay type: cell-based; details: Escherichia coli, 100 μM
Method: as §1
This is typically indicative of biofilm inhibition via a traditional microbicidal mechanism instead of a mechanism that modulates biofilm formation through non-microbicidal mechanisms. […] At this concentration, a 97% reduction in bacterial growth was observed.

S. epidermidis = experiment: Broth microdilution MIC; assay type: cell-based
Method: as §2, §3, §4

E. coli [4] = experiment: Broth microdilution MIC; assay type: cell-based; details: Escherichia coli
Method: as §2, §3, §4

MDRAB [5] = experiment: Broth microdilution MIC; assay type: cell-based
Method: as §2, §3, §4

MRSA = experiment: Broth microdilution MIC; assay type: cell-based, methicillin-resistant S. aureus; details: Staphylococcus aureus
Method: as §2, §3, §4

Listonella anguillarum = experiment: Marine bacteria microdilution MIC; details: Vibrio anguillarum, L. anguillarum
VRE = experiment: Broth microdilution MIC; assay type: cell-based, vancomycin resistant Enterococcus faecium; details: Enterococcus
Method: as §2, §3, §4

all of the test strains = experiment: Antibiotic activity (MIC) of control 2-aminoimidazoles against the test strains; assay type: cell-based
Method: To examine the necessity of the 4,5-disubstitution pattern for antimicrobial activity of the 2-aminoimidazole scaffold, two monosubstituted 2-aminoimidazole analogues of compound 19 were synthesized and screened alongside the parent 2-aminoimidazole for antibiotic activity (Scheme 2). Heptanoic acid and phenylhexanoic acid were treated with oxalyl chloride with catalytic dimethyl formamide in dichloromethane to produce the respective acid chlorides, which were then reacted with diazomethane and quenched with hydrobromic acid to make the respective alpha-bromo ketones. These alpha-bromo ketones were separately cyclized with boc-guanidine, providing a boc-protected 2-aminoimidazole scaffold that was subsequently deprotected upon treatment with trifluoroacetic acid in dichloromethane to yield 22 and 23.
as §4

[6] = Staphylococcus epidermidis, read-out: MIC

| Structure (SMILES) | MIC [1] | inhibition at 100 µM (MDRAB [2]) | MIC (Vibrio cholerae) | MIC (MSSA) | MIC (Vibrio vulnificus) | inhibition at 100 µM (E. coli [3]) | MIC (S. epidermidis; [6]) | MIC (E. coli [4]) | MIC (MDRAB [5]) | MIC (MRSA) | MIC (Listonella anguillarum) | MIC (VRE) | antibiotic activity (all of the test strains; highest concentration tested (36 μg/mL), every bacterial strain) | MIC (all of the test strains; Staphylococcus epidermidis, all of the test strains except for S. epidermidis) | MIC (S. epidermidis) | antibiotic activity (all of the test strains; any of the test strains except for S. epidermidis) |
| --- | --- | --- | --- | --- | --- | --- | --- | --- | --- | --- | --- | --- | --- | --- | --- | --- |
| Cc1[nH]c(N)nc1CCCCCc1ccccc1 [Compound 11, 5-methyl-4-(5-phenylpentyl)-1H-imidazol-2-amine] | 7 µg/mL (≈ 28.8 µM) | > 99% | 27.9 µg/mL (≈ 115 µM) | 2 µg/mL (≈ 8.22 µM) | 13.9 µg/mL (≈ 57.1 µM) | 96.3 ± 0.08% | 1 µg/mL (≈ 4.11 µM) | 8 µg/mL (≈ 32.9 µM) | 8 µg/mL (≈ 32.9 µM) | 4 µg/mL (≈ 16.4 µM) | 13.9 µg/mL (≈ 57.1 µM) | 8 µg/mL (≈ 32.9 µM) |  |  |  |  |
| CCc1[nH]c(N)nc1CCCCCc1ccccc1 [Compound 12, 5-ethyl-4-(5-phenylpentyl)-1H-imidazol-2-amine] | 14.7 µg/mL (≈ 57.1 µM) | 94.5 ± 0.2% | 29.4 µg/mL (≈ 114 µM) | 4 µg/mL (≈ 15.5 µM) | 29.4 µg/mL (≈ 114 µM) | > 99% | 2 µg/mL (≈ 7.77 µM) | 16 µg/mL (≈ 62.2 µM) | 32 µg/mL (≈ 124 µM) | 8 µg/mL (≈ 31.1 µM) | 14.7 µg/mL (≈ 57.1 µM) | 8 µg/mL (≈ 31.1 µM) |  |  |  |  |
| CCCc1[nH]c(N)nc1CCCCCc1ccccc1 [Compound 13, 4-(5-phenylpentyl)-5-propyl-1H-imidazol-2-amine] | 3.85 µg/mL (≈ 14.2 µM) | 87.8 ± 0.3% | 15.4 µg/mL (≈ 56.7 µM) | 4 µg/mL (≈ 14.7 µM) | 3.85 µg/mL (≈ 14.2 µM) | 95.8 ± 1.5% | 0.5 µg/mL (≈ 1.84 µM) | 8 µg/mL (≈ 29.5 µM) | 8 µg/mL (≈ 29.5 µM) | 4 µg/mL (≈ 14.7 µM) | 7.7 µg/mL (≈ 28.4 µM) | 4 µg/mL (≈ 14.7 µM) |  |  |  |  |
| CCCCc1[nH]c(N)nc1CCCCCc1ccccc1 [Compound 14, 5-butyl-4-(5-phenylpentyl)-1H-imidazol-2-amine] | 8.05 µg/mL (≈ 28.2 µM) | 85.4 ± 0.7% | 8.05 µg/mL (≈ 28.2 µM) | 2 µg/mL (≈ 7.01 µM) | 4.02 µg/mL (≈ 14.1 µM) | 96.9 ± 1.1% | 0.25 µg/mL (≈ 0.876 µM) | 4 µg/mL (≈ 14 µM) | 4 µg/mL (≈ 14 µM) | 2 µg/mL (≈ 7.01 µM) | 4.02 µg/mL (≈ 14.1 µM) | 2 µg/mL (≈ 7.01 µM) |  |  |  |  |
| Nc1ncc[nH]1 [Compound 21, 2-aminoimidazole, reference compound] |  |  |  |  |  |  |  |  |  |  |  |  | no antibiotic activity |  |  |  |
| CCCCCCc1c[nH]c(N)n1.Cl [Compound 22, 4-hexyl-1H-imidazol-2-amine hydrochloride] |  |  |  |  |  |  | 0.04 µg/mL |  |  |  |  |  |  | > 41 µg/mL |  |  |
| Cl.Nc1nc(CCCCCc2ccccc2)c[nH]1 [Compound 23] |  |  |  |  |  |  |  |  |  |  |  |  |  |  | 0.05 µg/mL | no notable antibiotic activity |
